*1 amine or outer side, *2 acyl side, *3 side chain or, on linkers, in order; H or OH if unused. Where a SMILES comes first, the peptide text is derived from it. Bridges are numbered along the chain shown (N, C = ends). [ ]: non-standard residue; d: D form. X48 = CCCC[C@@H](/C=C\[C@@H](Cc1cccnc1)C(=O)[*:2])N[*:1]; X75 = CCC[C@H](N[*:1])c1nncn1[C@@H](Cc1ccccc1)C(=O)[*:2]; Ala(pyrimidin-5-yl) = N[C@@H](Cc1cncnc1)C(=O)O; Phe(2-F) = N[C@@H](Cc1ccccc1F)C(=O)O; NMe3Pal = CN[C@@H](Cc1cccnc1)C(=O)O; X1 = O=C(C12CC(CN[*:1])(C1)C2)[*:2]; PhLac = O=C(O)[C@@H](O)Cc1ccccc1; 3Pal = N[C@@H](Cc1cccnc1)C(=O)O; AllylGly = C=CC[C@H](N)C(=O)O; Cba = N[C@@H](CC1CCC1)C(=O)O; NMeA = CN[C@@H](C)C(=O)O; Nle = CCCC[C@H](N)C(=O)O
What follows are compounds tested against KRAS-G12D protein (Homo sapiens, UniProt P01116, G12D) (assay: SOS-mediated nucleotide exchange assay (BODIPY-GDP / Tb-streptavidin TR-FRET)). Conditions: not given.
Sequence of KRAS-G12D protein (P01116 1-188 isoform P01116-2 G12D): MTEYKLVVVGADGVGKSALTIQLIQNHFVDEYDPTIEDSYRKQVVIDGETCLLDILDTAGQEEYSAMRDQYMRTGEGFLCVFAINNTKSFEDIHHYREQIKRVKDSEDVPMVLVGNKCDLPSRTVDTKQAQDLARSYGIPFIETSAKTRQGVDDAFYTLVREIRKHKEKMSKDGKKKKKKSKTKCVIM
Assay type: biochemical
`COc1ccc(C[C@@H]2NC(=O)[C@H](CC3CCC3)NC(=O)[C@H](Cc3cccnc3)NC(=O)[C@H](CCCNC(=N)N)NC(=O)[C@H](Cc3ccccc3)NC(=O)CSC[C@](C)(C(N)=O)NC(=O)[C@@H]3CCCCCCCC[C@H](NC2=O)C(=O)N3C)cc1` (single isomer, unassigned) [SEQ ID NO: 191] showed an EC50 of 324 nM.
`CCCC[C@@H]1NC(=O)[C@H](Cc2ccc(OC)cc2)NC(=O)[C@H](CC2CCC2)NC(=O)[C@H](Cc2cccnc2)NC(=O)[C@H](CCCNC(=N)N)NC(=O)[C@H](Cc2ccccc2)NC(=O)C2CCC3(CN(C3)C(=O)[C@H](Cc3ccccc3)N(C)C1=O)O2` (single isomer, unassigned) [compound 100, cyclo(F-R-3Pal-cBuA-TyrOMe-Nle-NMeF-spiro54)] showed an EC50 of 656 nM.
In the case of `CCCC[C@@H]1NC(=O)[C@H](Cc2ccccc2F)NC(=O)C(CC2CC(F)(F)C2)NC(=O)[C@H](Cc2cncnc2)NC(=O)[C@H](C)N(C)C(=O)[C@H](Cc2ccccc2)OC(=O)C23CC(CNC(=O)[C@H](Cc4cccnc4)N(C)C1=O)(C2)C3` (single isomer, unassigned) [compound 122, cyclo(FLac-NMeA-PyrimAla-rF2Cba-Phe2F-Nle-NMe3Pal-amBCP)], the EC50 is reported as 236 nM.
Compound `CCCC[C@@H]1NC(=O)[C@H](Cc2ccccc2F)NC(=O)C(CC2CC(F)(F)C2)NC(=O)[C@H](Cc2cncnc2)NC(=O)[C@H](C)N(C)C(=O)[C@H](Cc2ccccc2)OC(=O)C23CC(CNC(=O)[C@H](Cc4cccnc4)N(C)C1=O)(C2)C3` (single isomer, unassigned) [compound 123, cyclo(FLac-NMeA-PyrimAla-rF2Cba-Phe2F-Nle-NMe3Pal-amBCP)] has an EC50 of 8190 nM.
`CON=C1C[C@@H](Cc2ccccc2)C(=O)N(C)[C@@H](C)C(=O)N[C@@H](Cc2cncnc2)C(=O)N[C@@H](CC2CC2)C(=O)N[C@@H](Cc2ccccc2F)C(=O)N[C@@H](CCC(C)(F)F)C(=O)N(C)[C@@H](Cc2ccccc2)C(=O)NCC23CC1(C2)C3` (single isomer, unassigned) [compound 177, cyclo(CPhe-NMeA-PyrimAla-cPrA-Phe2F-Nle3F2-NMeF-MeOximamBCP)] gave an EC50 of 51 nM.
In the case of `CON=C1C[C@@H](Cc2ccccc2)C(=O)N(C)[C@@H](C)C(=O)N[C@@H](Cc2cncnc2)C(=O)N[C@@H](CC2CC2)C(=O)N[C@@H](Cc2ccccc2F)C(=O)N[C@@H](CCC(C)(F)F)C(=O)N(C)[C@@H](Cc2ccccc2)C(=O)NCC23CC1(C2)C3` (single isomer, unassigned) [compound 178, cyclo(CPhe-NMeA-PyrimAla-cPrA-Phe2F-Nle3F2-NMeF-MeOximamBCP)], the EC50 is reported as 1.7 nM.
With `CCCC[C@@H]1NC(=O)[C@H](Cc2ccc(C(F)(F)F)nc2)NC(=O)[C@H](CCCn2ccnc2)N(C)C(=O)[C@H](Cc2ccccc2)OC(=O)C23CC(CNC(=O)[C@H](Cc4ccccc4)N(C)C(=O)[C@H](CCCC)NC(=O)[C@H](Cc4ccccc4F)NC1=O)(C2)C3` (single isomer, unassigned) [compound 218, cyclo(FLac-NMeNvalmid-4CF33Pal-Nle-Phe2F-Nle-NMeF-amBCP)] the EC50 was 188 nM.
For `CCCC[C@@H]1NC(=O)[C@H](Cc2ccc(C(F)(F)F)nc2)NC(=O)[C@H](CCCn2ccnc2)N(C)C(=O)[C@H](Cc2ccccc2)OC(=O)C23CC(CNC(=O)[C@H](Cc4ccccc4)N(C)C(=O)[C@H](CCCC)NC(=O)[C@H](Cc4ccccc4F)NC1=O)(C2)C3` (single isomer, unassigned) [compound 219, cyclo(FLac-NMeNvaImid-4CF33Pal-Nle-Phe2F-Nle-NMeF-amBCP)], the EC50 was 62.8 nM.
`CCCC[C@@H]1NC(=O)[C@H](Cc2cncnc2)NC(=O)[C@H](CCCn2ccnc2)N(C)C(=O)[C@H](Cc2ccccc2)OC(=O)C23CC(CNC(=O)[C@H](Cc4ccccc4)N(C)C(=O)[C@H](CCCC)NC(=O)[C@H](Cc4ccccc4F)NC1=O)(C2)C3` (single isomer, unassigned) [compound 222, cyclo(FLac-NMeNvalmid-PyrimAla-Nle-Phe2F-Nle-NMeF-amBCP)] showed an EC50 of 494 nM.
Compound `CCCC[C@@H]1NC(=O)[C@H](Cc2cncnc2)NC(=O)[C@H](CCCn2ccnc2)N(C)C(=O)[C@H](Cc2ccccc2)OC(=O)C23CC(CNC(=O)[C@H](Cc4ccccc4)N(C)C(=O)[C@H](CCCC)NC(=O)[C@H](Cc4ccccc4F)NC1=O)(C2)C3` (single isomer, unassigned) [compound 223, cyclo(FLac-NMeNvalmid-PyrimAla-Nle-Phe2F-Nle-NMeF-amBCP)] has an EC50 of 25.3 nM.
`CC(C)CC[C@@H]1NC(=O)[C@H](Cc2ccccc2F)NC(=O)[C@H](CC2CC2)NC(=O)[C@H](Cc2cccnc2)NC(=O)[C@H](C)N(C)C(=O)[C@H](Cc2ccccc2)OC(=O)C23CC(CNC(=O)[C@H](Cc4cccnc4F)N(C)C1=O)(C2)C3` (single isomer, unassigned) [compound 297, cyclo(FLac-NMeA-3Pal-cPrA-Phe2F-hL-NMe3Pal2F-amBCP)] showed an EC50 of 4 nM.
`CCCC[C@@H]1NC(=O)[C@H](Cc2cnc(C#N)nc2)NC(=O)[C@H](C)N(C)C(=O)[C@H](Cc2ccccc2)OC(=O)C23CC(CNC(=O)[C@H](Cc4ccccc4)N(C)C(=O)[C@H](CCCC)NC(=O)[C@H](Cc4ccccc4F)NC1=O)(C2)C3` (single isomer, unassigned) [compound 314, cyclo(FLac-NMeA-AlaPyrim4CN-Nle-Phe2F-Nle-NMeF-amBCP)] was tested, and the EC50 was 24.8 nM.
With `CCCC[C@@H]1NC(=O)[C@H](Cc2cnc(C#N)nc2)NC(=O)[C@H](C)N(C)C(=O)[C@H](Cc2ccccc2)OC(=O)C23CC(CNC(=O)[C@H](Cc4ccccc4)N(C)C(=O)[C@H](CCCC)NC(=O)[C@H](Cc4ccccc4F)NC1=O)(C2)C3` (single isomer, unassigned) [compound 315, cyclo(FLac-NMeA-AlaPyrim4CN-Nle-Phe2F-Nle-NMeF-amBCP)] the EC50 was 5.28 nM.
With `CCC[C@@H]1NC(=O)[C@H](Cc2ccc(OC)cc2)NC(=O)[C@H](CC2CCC2)NC(=O)[C@H](Cc2cccnc2)NC(=O)[C@H](CCCNC(=N)N)NC(=O)[C@H](Cc2ccccc2)NC(=O)CSC[C@H](C(N)=O)NC(=O)[C@H](Cc2ccccc2)n2cnnc21` [SEQ ID NO: 64, cyclo(F-R-3Pal-cBuA- TyrOMe-124triazole- dC-ClAc)] ({CH2CO}-FR[3Pal][Cba]Y(Me)[X75][dC]-NH2; thioether N-7) the EC50 was 2820 nM.
In the case of `CCCC[C@H]1/C=C\[C@@H](Cc2cccnc2)C(=O)NCC23CC(C2)(C3)C(=O)O[C@@H](Cc2ccccc2)C(=O)N(C)[C@@H](C)C(=O)N[C@@H](Cc2cncnc2)C(=O)N[C@@H](CCCC)C(=O)N[C@@H](Cc2ccccc2F)C(=O)N1` [SEQ ID NO: 137, cyclo(FLac-NMeA- PyrimAla-Nle-Phe2F- Nlecalken3Pal-amBCP)] (cyclo([NMeA][Ala(pyrimidin-5-yl)][Nle][Phe(2-F)][X48][X1][PhLac])), the EC50 is reported as 590 nM.
`C[C@H]1C(=O)N[C@@H](Cc2cncnc2)C(=O)N[C@@H](CC2CC2)C(=O)N[C@@H](Cc2ccccc2F)C(=O)NC2CC/C=C\CC[C@@H](C(=O)NCC34CC(C3)(C4)C(=O)O[C@@H](Cc3ccccc3)C(=O)N1C)N(C)C2=O` [SEQ ID NO: 182, cyclo(FLac-NMeA-PyrimAla-cPrA-Phe2F-Hag-NMeHag-amBCP)] was tested, and the EC50 was 225 nM.
Compound `CCCC[C@@H]1NC(=O)[C@@H]2C/C=C\C[C@@H](C(N)=O)NC(=O)[C@H](CSCC(=O)N[C@@H](Cc3ccccc3)C(=O)N[C@@H](CCCNC(=N)N)C(=O)N[C@@H](Cc3cccnc3)C(=O)N[C@@H](CC3CCC3)C(=O)N2)NC(=O)[C@H](Cc2cccnc2)N(C)C1=O` [SEQ ID NO: 186, cyclo(C1Ac-F-R-3Pal-cBuA-Ape-Nle-NMe3Pal-C)] ({CH2CO}-FR[3Pal][Cba][AllylGly][Nle][NMe3Pal]C[AllylGly]-NH2; staple (Z) 5-9; thioether N-8) has an EC50 of 7270 nM.
`COc1ccc(C[C@@H]2NC(=O)[C@H](CC3CCC3)NC(=O)[C@H](Cc3cccnc3)NC(=O)[C@H](CCCNC(=N)N)NC(=O)[C@H](Cc3ccccc3)NC(=O)CSC[C@](C)(C(N)=O)NC(=O)[C@@H]3CCCCCC[C@H](NC2=O)C(=O)N3C)cc1` [SEQ ID NO: 188, cyclo(F-R-3Pal-cBuA-TyrOMe-RdHagNMeHag-aMeC-C1Ac)] gave an EC50 of 299 nM.
`COc1ccc(C[C@@H]2NC(=O)[C@H](CC3CCC3)NC(=O)[C@H](Cc3cccnc3)NC(=O)[C@H](CCCNC(=N)N)NC(=O)[C@H](Cc3ccccc3)NC(=O)CSC[C@](C)(C(N)=O)NC(=O)[C@@H]3CCCCCCC[C@H](NC2=O)C(=O)N3C)cc1` [SEQ ID NO: 192, cyclo(F-R-3Pal-cBuA-TyrOMe-AheNMeHag-aMeC-C1Ac)] showed an EC50 of 127 nM.
`COc1ccc(C[C@@H]2NC(=O)[C@H](CC3CCC3)NC(=O)[C@H](Cc3cccnc3)NC(=O)[C@H](CCCNC(=N)N)NC(=O)[C@H](Cc3ccccc3)NC(=O)CSC[C@](C)(C(N)=O)NC(=O)[C@@H]3CCCCCCCC[C@H](NC2=O)C(=O)N3C)cc1` [SEQ ID NO: 193, cyclo(F-R-3Pal-cBuA-TyrOMe-AheNMeAhe-aMeC-C1Ac)] showed an EC50 of 900 nM.
With `CCCC[C@@H]1NC(=O)[C@H](Cc2ccc(O)cc2)NC(=O)[C@H](CC(C)C)NC(=O)[C@H](Cc2ccc(O)cc2)NC(=O)[C@H](CCCNC(=N)N)NC(=O)[C@H](Cc2ccccc2)NC(=O)CSC[C@@H](C(N)=O)NC(=O)[C@H](Cc2ccccc2)N(C)C1=O` [compound 1, cyclo(F-R-Y-L-Y-Nle-NMeF-Cl-ClAc)] the EC50 was 912 nM.
In the case of `CCCCC[C@@H]1NC(=O)[C@H](Cc2ccc(O)cc2)NC(=O)[C@H](CC(C)C)NC(=O)[C@H](Cc2ccc(O)cc2)NC(=O)[C@H](CCCNC(=N)N)NC(=O)[C@H](Cc2ccccc2)NC(=O)CSC[C@H](C(N)=O)NC(=O)[C@H](Cc2ccccc2)N(C)C1=O` [compound 3, cyclo(F-R-Y-L-Y-Ahp-NMeF-dCl-ClAc)], the EC50 is reported as 966 nM.

Same assay, conditions: listed as 189
Compound `COc1ccc(C[C@@H]2NC(=O)[C@H](CC3CCC3)NC(=O)[C@H](Cc3cccnc3)NC(=O)[C@H](CCCNC(=N)N)NC(=O)[C@H](Cc3ccccc3)NC(=O)CSC[C@](C)(C(N)=O)NC(=O)[C@@H]3CCCCCCC[C@H](NC2=O)C(=O)N3C)cc1` (single isomer, unassigned) [SEQ ID NO: 189] has an EC50 of 1560 nM.

Same assay, conditions: listed as 190
`COc1ccc(C[C@@H]2NC(=O)[C@H](CC3CCC3)NC(=O)[C@H](Cc3cccnc3)NC(=O)[C@H](CCCNC(=N)N)NC(=O)[C@H](Cc3ccccc3)NC(=O)CSC[C@](C)(C(N)=O)NC(=O)[C@@H]3CCCCCCC[C@H](NC2=O)C(=O)N3C)cc1` (single isomer, unassigned) [SEQ ID NO: 190] gave an EC50 of 650 nM.

Source: US20260001914A1, “MACROCYCLIC PEPTIDES TARGETING KRAS” (Merck Sharp & Dohme LLC, priority 2022, published 2026)
